US12509430B2, “Inhibitors of nicotinamide N-methyltransferase, compositions and uses thereof” (President and Fellows of Harvard College, priority 2020, dated 2025)
Like-named read-outs stand apart in the source and are kept apart here.

What was measured:
[1] = Microsomal stability, human microsomes with NADPH (Phase I); assay type: in vitro ADME; details: human liver microsomes; for CLhep predicted at 2 μM: read-out: Predicted hepatic Clint; for CLint scaled at 2 μM: read-out: Scaled-up CLint
Method: (§1) The metabolism of Compounds 4 and 13 was evaluated using a microsomal stability assay. Briefly, a master solution was prepared according to Tables 5 and 6.
(§2) The final concentrations of NADPH was 1 mM. […] Samples with NADPH were prepared in duplicate. Negative controls were prepared in singlet.
(§3) Verapamil was used as positive control in this study. The final concentration of test compound or control compound was 2 μM.
(§4) Aliquots of 50 μL were taken from the reaction solution at 0, 15, 30, 45 and 60 minutes.

NNMT in K562 cells = biological target: T1, NNMT in K562 cells (Homo sapiens, UniProt P40261); test: Cellular inhibition of NNMT in K562 cells by 1-MNA quantification; assay type: cell-based
T1 construct: In K562 cells, which express NNMT; host or cells: K562
T1 sequence (P40261 1-264): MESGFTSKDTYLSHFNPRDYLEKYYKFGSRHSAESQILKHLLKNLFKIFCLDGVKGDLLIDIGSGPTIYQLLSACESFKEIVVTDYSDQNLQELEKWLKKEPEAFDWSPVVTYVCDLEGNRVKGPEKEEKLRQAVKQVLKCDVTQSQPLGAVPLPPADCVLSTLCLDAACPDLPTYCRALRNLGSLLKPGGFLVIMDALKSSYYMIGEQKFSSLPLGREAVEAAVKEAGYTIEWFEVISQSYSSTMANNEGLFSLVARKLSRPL
Method: Cellular activity was measured in K562 (ATCC) cells via measuring (1-methyl nicotinamide) 1-MNA levels after compound incubation at varying concentrations overnight. […] Cells were collected by pipetting and extracted with 200 ul acetonitrile containing internal deuterated standard 10 ng/ml d4-1-MNA. […] The mobile phase A was 2.5 mM ammonium formate in water, and mobile phase B was methanol with 0.1% formic acid, delivered at 0.25 mL/min. The capillary voltage was set to 2400V and the nozzle at 300V. The drying gas temperature was 240° C., the drying gas flow rate was 4 L/min, and the nebulizer pressure was 40 psi. The mass spectrometer was run in multiple reaction monitoring mode.
(§5) All cells were cultured at 37° C. in a humidified incubator buffered with 5% CO2. K562 cells were maintained in RPMI supplemented with 10% fetal bovine serum (FBS). Ovarian CAFs were maintained in MSC-Gro Vitroplus III for proliferation and in DMEM containing 10 μM methionine with 10% dialyzed FBS for experiments. K562 were purchased from ATCC. Ovarian CAFs were purchased from Neuromics.

NNMT in ovarian CAFs = biological target: T2, NNMT in ovarian CAFs (Homo sapiens, UniProt P40261); test: 1-MNA quantification in ovarian cancer associated fibroblasts; assay type: cell-based; details: 1 μM, six day continuous treatment
T2 construct: host or cells: ovarian cancer-associated fibroblasts
T2 sequence (P40261 1-264): T1 sequence (P40261 1-264)
Method: as §5
1-MNA quantification in ovarian CAFs (Neuromics) was performed similarly as in K562 cells, except cells were scraped off the plate in PBS buffer after a six day continuous treatment with compound and then extracted.

[2] = In vivo pharmacokinetics, plasma concentration of inhibitor in female C57B16/N mice
Source text: Doses were freshly prepared on the day of dosing.

[3] = test system: Ovarian Cancer Associated Fibroblasts (CAF) markers; test: CAF markers in ovarian CAFs (gel electrophoresis); assay type: cell-based, human; details: incubation with compound, FIG. 5
Method: as §5

[4] = test system: 1-Methylnicotinamide (1-MNA); test: In vivo pharmacodynamics, plasma 1-MNA in female C57B16/N mice after inhibitor dosing; design: species or system mouse
Method: 1-Methylnicotinamide (1-MNA) concentrations were also determined.
Then the samples were vortexed for 30 s.

[5] = Microsomal stability, mouse microsomes with NADPH and UDPGA (Phase II); assay type: in vitro ADME; details: mouse liver microsomes, NADPH & UDPGA
Method: as §1
(§6) For the assay with NADPH and UDPGA (Phase II), 40 μL of 10 mM NADPH solution and 40 μL of 20 mM UDPGA solution were added to each well. The final concentrations of NADPH and UDPGA were 1 mM and 2 mM. […] The negative control samples were prepared by replacing cofactors (NADPH and UDPGA) solution with 80 μL of ultra-pure H2O. Samples with cofactors were prepared in duplicate. Negative controls were prepared in singlet.
(§7) The reaction was started with the addition of 2 μL of 400 μM control compound or test compound solutions. Diclofenac was used as positive control in this study. The final concentration of test compound or control compound was 2 μM.
as §4

[6] = Microsomal stability, mouse microsomes with NADPH (Phase I); assay type: in vitro ADME; details: mouse liver microsomes; for CLhep predicted at 2 μM: read-out: Predicted hepatic Clint; for CLint scaled at 2 μM: read-out: Scaled-up CLint
Method: as §1, §2, §3, §4

[7] = Microsomal stability, human microsomes with NADPH and UDPGA (Phase II); assay type: in vitro ADME; details: human liver microsomes, NADPH & UDPGA
Method: as §1, §6, §7, §4

recombinant human NNMT = biological target: T3, recombinant human NNMT (Homo sapiens, UniProt P40261); test: in vitro NNMT enzyme inhibition assay (Promega MTase-Glo Methyltransferase Assay); assay type: biochemical
T3 sequence (P40261 1-264): T1 sequence (P40261 1-264)
Method: NNMT biochemical activity for was evaluated using the Promega Mtase-Glo Methyltransferase Assay kit. Assays were performed in a white, flat-bottomed 96 well plate. […] Reactions were performed for 20 minutes at room temperature. MTase-Glo reagent and MTase-Glo detection solution were added according to manufacturer's instructions and luminescence signal measured with a SpectraMax i3 plate reader and data analyzed with GraphPad Prism version 8. FIG. 14 depicts a visual summary of the Promega MTase-Glo Methyltransferase assay used to assess biochemical activity of novel inhibitors.

U2OS = test: Cellular Activity IC50 (U2OS); assay type: cell-based; details: Homo sapiens
3T3L-1 = test: Cellular Activity IC50 (3T3L-1); assay type: cell-based; details: Mus musculus, 3T3-L1
[8] = K562, read-out: Cellular Activity IC50 (K562)
[9] = IV 1 mg/kg, female C57B16/N mice
[10] = PO 10 mg/kg, female C57B16/N mice, plasma
[11] = PO 50 mg/kg, female C57B16/N mice, plasma
[12] = female, C57B16/N, mouse, plasma, iv, 1 mg/kg
[13] = female, C57B16/N, mouse, plasma, po, 10 mg/kg
[14] = female, C57B16/N, mouse, plasma, po, 50 mg/kg
[15] = plasma 1-MNA after inhibitor IV 1 mg/kg
[16] = plasma 1-MNA after inhibitor PO 10 mg/kg
[17] = plasma 1-MNA after inhibitor PO 50 mg/kg
[18] = read-out: Predicted hepatic Clint

Structure (SMILES): CNc1cc(C)c(C(N)=O)cn1 [Compound 4, 4-methyl-6-(methylamino) nicotinamide]
- microsomal CLint at 2 μM [1]: < 5.42 µL/min/mg
- half-life at 2 μM [1]: > 4.26 h
- Remaining (%) at 60 min [1]: 94.54%
- CLhep predicted at 2 μM [1]: < 5.12 mL/min/kg
- CLint scaled at 2 μM [1]: < 6.79 mL/min/kg
- IC50 (NNMT in K562 cells; [8]): 16 nM
- IC50 (NNMT in K562 cells; K562 cells, 24 h, 1-MNA quantification, read-out: IC50, NNMT inhibition in K562 cells): 15 nM
- NNMT inhibition in ovarian CAFs (1-MNA quantification) (NNMT in ovarian CAFs): significantly inhibited NNMT
- Cl_obs [2, 9]: 62.8 mL/min/kg
- Vss_obs [2, 9]: 0.786 L/kg
- AUC_%Extrap_obs ([2]; IV 1 mg/kg, female C57B16/N mice, plasma): 1.63%
- F_last ([2]; PO 10 mg/kg, female C57B16/N mice): 101%
- AUC_%Extrap_obs [2, 10]: 0.194%
- T1/2 [2, 10]: 1.11 h
- F_last ([2]; PO 50 mg/kg, female C57B16/N mice): 222%
- AUC_%Extrap_obs [2, 11]: 0.319%
- AUClast [2, 11]: 30747 ng·h/mL
- Cmax [2, 11]: 38900 ng/mL
- T1/2 [2, 11]: 1.79 h
- AUC(0-inf) [2, 12]: 278 ng·h/mL
- AUC(0-t) [2, 12]: 273 ng·h/mL
- C0 [2, 12]: 1190 ng/mL
- MRT inf [2, 12]: 0.216 h
- half-life [2, 12]: 0.174 h
- AUC(0-inf) [2, 13]: 2810 ng·h/mL
- AUC(0-t) [2, 13]: 2800 ng·h/mL
- Cmax [2, 13]: 4000 ng/mL
- MRT inf [2, 13]: 0.635 h
- AUC(0-inf) [2, 14]: 30800 ng·h/mL
- MRT inf [2, 14]: 0.695 h
- CAF markers in ovarian CAFs [3]: reduction in CAF markers
- AUClast of 1-MNA [4, 15]: 792 ng·h/mL
- Cmax of 1-MNA [4, 15]: 39.3 ng/mL
- Tmax of 1-MNA [4, 15]: 16.7 h
- AUClast of 1-MNA [4, 16]: 761 ng·h/mL
- Cmax of 1-MNA [4, 16]: 42.4 ng/mL
- Tmax of 1-MNA [4, 16]: 18.7 h
- AUClast of 1-MNA [4, 17]: 678 ng·h/mL
- Cmax of 1-MNA [4, 17]: 48.8 ng/mL
- Tmax of 1-MNA [4, 17]: 24.0 h
- microsomal CLint at 2 μM [5]: < 5.42 µL/min/mg
- half-life at 2 μM ([5]; 2 μM): > 4.26 h
- Remaining (%) at 60 min ([5]; 60 min): 85.18%
- CLhep predicted at 2 μM [5, 18]: < 18.8 mL/min/kg
- CLint scaled at 2 μM ([5]; read-out: Scaled-up CLint): < 23.7 mL/min/kg
- microsomal CLint at 2 μM [6]: < 5.42 µL/min/mg
- half-life at 2 μM [6]: > 4.26 h
- Remaining (%) at 60 min [6]: 85.32%
- CLhep predicted at 2 μM [6]: < 18.8 mL/min/kg
- CLint scaled at 2 μM [6]: < 23.7 mL/min/kg
- microsomal CLint at 2 μM [7]: < 5.42 µL/min/mg
- half-life at 2 μM ([7]; 2 μM): > 4.26 h
- Remaining (%) at 60 min ([7]; 60 min): 96.85%
- CLhep predicted at 2 μM [7, 18]: < 5.12 mL/min/kg
- CLint scaled at 2 μM ([7]; read-out: Scaled-up CLint): < 6.79 mL/min/kg
- IC50 (recombinant human NNMT; 40 nM recombinant human NNMT, 8 μM nicotinamide, 20 min, read-out: IC50, in vitro NNMT enzyme inhibition assay): 244 nM
- IC50 (recombinant human NNMT; read-out: in vitro hNNMT IC50): 240 nM

Structure (SMILES): CNc1cc(Cl)c(C(N)=O)cn1 [Compound 13]
- microsomal CLint at 2 μM [1]: < 5.42 µL/min/mg
- half-life at 2 μM [1]: > 4.26 h
- Remaining (%) at 60 min [1]: 110.09%
- CLhep predicted at 2 μM [1]: < 5.12 mL/min/kg
- CLint scaled at 2 μM [1]: < 6.79 mL/min/kg
- IC50 (NNMT in K562 cells; [8]): 106 nM
- microsomal CLint at 2 μM [6]: < 5.42 µL/min/mg
- half-life at 2 μM [6]: > 4.26 h
- Remaining (%) at 60 min [6]: 85.85%
- CLhep predicted at 2 μM [6]: < 18.8 mL/min/kg
- CLint scaled at 2 μM [6]: < 23.7 mL/min/kg
- IC50 (recombinant human NNMT; read-out: in vitro hNNMT IC50): 673 nM

Structure (SMILES): COc1ccc(C(N)=O)cn1 [JBSNF-000088]
- IC50 (U2OS): 1600 nM
- IC50 (3T3L-1): 6300 nM
- IC50 (recombinant human NNMT; read-out: in vitro hNNMT IC50): 2400 nM

Structure (SMILES): CNc1ccc(C(N)=O)cn1 [JBSNF-000265, reference compound]
- microsomal CLint at 2 μM [1]: ~6.84 µL/min/mg
- half-life at 2 μM [1]: ~3.38 h
- Remaining (%) at 60 min [1]: 81.72%
- CLhep predicted at 2 μM [1]: ~6.06 mL/min/kg
- CLint scaled at 2 μM [1]: ~8.57 mL/min/kg
- IC50 (U2OS): 300 nM
- AUC_%Extrap_obs [2, 11]: 0.0313%
- AUC(0-inf) [2, 14]: 15500 ng·h/mL
- AUC(0-t) [2, 14]: 15400 ng·h/mL
- Cmax [2, 14]: 20900 ng/mL
- MRT inf [2, 14]: 0.57 h
- Tmax [2, 14]: 0.333 h
- half-life [2, 14]: 1.06 h
- AUClast of 1-MNA [4, 17]: 799 ng·h/mL
- Cmax of 1-MNA [4, 17]: 39.3 ng/mL
- Tmax of 1-MNA [4, 17]: 6.7 h
- IC50 (3T3L-1): 2100 nM
- microsomal CLint at 2 μM [6]: ~4.94 µL/min/mg
- half-life at 2 μM [6]: ~4.67 h
- Remaining (%) at 60 min [6]: 84.73%
- CLhep predicted at 2 μM [6]: ~17.4 mL/min/kg
- CLint scaled at 2 μM [6]: ~21.6 mL/min/kg

Structure (SMILES): CNc1cc(C)c(C(N)=O)cn1 [JBSNF-000581, reference compound]
- IC50 (recombinant human NNMT; read-out: in vitro hNNMT IC50): 840 nM
